For one compound, inhibition results are on record in paper PMC6934184, “Selective DNA-PKcs inhibition extends the therapeutic index of localized radiotherapy and chemotherapy” (The Journal of Clinical Investigation, 2019).

Molecules are shown by their SMILES.

This assay concerns the target T1, INSR (Homo sapiens, UniProt P06213).
T1 construct: purchased Thermo Fisher Scientific (Life Technologies) SelectScreen
Kind of assay: SelectScreen Z'LYTE. In kind it is biochemical. Put shortly: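 NU5455 was profiled across the SelectScreen Broad panel of kinase activity and binding assays. Z'LYTE reactions such as CSF1R ran at apparent Km ATP, while the Adapta CAMK1 assay used ATP listed as 10. Values are given as percent.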

T1 sequence (P06213 28-1382): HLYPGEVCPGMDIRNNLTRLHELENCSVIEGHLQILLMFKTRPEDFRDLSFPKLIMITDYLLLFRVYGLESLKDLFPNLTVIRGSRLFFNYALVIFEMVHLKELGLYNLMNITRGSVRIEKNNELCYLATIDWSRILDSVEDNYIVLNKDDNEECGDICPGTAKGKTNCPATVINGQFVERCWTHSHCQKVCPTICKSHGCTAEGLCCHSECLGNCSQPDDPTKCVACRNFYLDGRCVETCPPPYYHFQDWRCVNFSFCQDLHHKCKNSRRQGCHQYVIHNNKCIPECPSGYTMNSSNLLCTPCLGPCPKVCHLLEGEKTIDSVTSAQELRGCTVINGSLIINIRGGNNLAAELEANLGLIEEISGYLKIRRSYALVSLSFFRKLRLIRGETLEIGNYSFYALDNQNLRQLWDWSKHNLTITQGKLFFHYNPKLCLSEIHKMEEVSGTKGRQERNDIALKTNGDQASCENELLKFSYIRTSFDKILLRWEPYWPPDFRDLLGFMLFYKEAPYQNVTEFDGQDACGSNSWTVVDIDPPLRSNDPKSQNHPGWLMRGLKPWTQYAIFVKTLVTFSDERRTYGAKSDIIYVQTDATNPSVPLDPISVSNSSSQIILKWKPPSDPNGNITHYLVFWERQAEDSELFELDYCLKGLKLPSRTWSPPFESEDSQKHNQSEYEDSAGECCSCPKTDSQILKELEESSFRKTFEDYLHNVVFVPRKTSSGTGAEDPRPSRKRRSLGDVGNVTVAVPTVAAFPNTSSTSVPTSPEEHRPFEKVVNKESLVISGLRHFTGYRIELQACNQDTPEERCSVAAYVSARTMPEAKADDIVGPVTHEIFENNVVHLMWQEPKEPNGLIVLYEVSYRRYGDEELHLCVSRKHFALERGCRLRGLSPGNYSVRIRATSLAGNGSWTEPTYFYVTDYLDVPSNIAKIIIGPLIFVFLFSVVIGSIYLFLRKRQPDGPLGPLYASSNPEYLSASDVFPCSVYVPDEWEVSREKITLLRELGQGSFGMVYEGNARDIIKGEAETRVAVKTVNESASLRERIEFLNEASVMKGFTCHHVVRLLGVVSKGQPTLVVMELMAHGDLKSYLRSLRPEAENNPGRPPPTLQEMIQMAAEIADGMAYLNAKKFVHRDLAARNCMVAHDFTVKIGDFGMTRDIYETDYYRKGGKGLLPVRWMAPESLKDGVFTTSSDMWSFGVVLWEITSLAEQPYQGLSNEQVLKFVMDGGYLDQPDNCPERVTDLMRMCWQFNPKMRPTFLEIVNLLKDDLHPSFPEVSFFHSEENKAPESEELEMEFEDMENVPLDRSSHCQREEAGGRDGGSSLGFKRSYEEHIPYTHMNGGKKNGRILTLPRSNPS

`CN(C(=O)CN1CCOCC1)c1ccc2sc3c(-c4cccc5c(=O)cc(N6CC7CCC(C6)O7)oc45)cccc3c2c1` [NU5455] displayed an inhibition at 1 µM of 4.1%.

By inhibition is commonly meant the drop in the measured response relative to a control, in per cent. A high value points to a strong effect.
